According to patent publication US20240294541A1, “COMPOUNDS CONSTITUTING C20-MODIFIED SALINOMYCIN DERIVATIVES, A METHOD FOR OBTAINING THE SAME, A COMPOSITION CONTAINING THE SAME AND A USE OF SAID COMPOUNDS” (FILECLO SPOLKA Z OGRANICZONA ODPOWIEDZIALNOSCIA, priority 2021, published 2024):
Where “and” joins values, the source holds several entries; their conditions need not be identical. Equal values may be shown once. Read-outs that look alike come from different tables or passages of the source.

What was measured:
Format in all cases: cell-based
cancer cells = experiment: In vitro cytotoxic activity on the panel of cancer cell lines (MTT/SRB), general statements; details: Tables 3.1, 3.2, 4 and 5; parent compound salinomycin
[1] = system: NCI-H23 (human lung cancer); experiment: In vitro cytotoxicity, SRB assay, NCI-H23; details: 72 h with compound, SRB, n/a = non-active compound, read-out: NCI-H23 IC50
[2] = system: PFSK-1 (malignant primitive neuroectodermal tumour); experiment: In vitro cytotoxicity, SRB assay, PFSK-1; details: 72 h with compound, SRB, n/a = non-active compound, read-out: PFSK-1 IC50
[3] = system: A2780 (human ovarian cancer); experiment: In vitro cytotoxicity, SRB assay, A2780; details: 72 h with compound, SRB, n/a = non-active compound, read-out: A2780 IC50
[4] = system: A2780Cis (cisplatin-resistant human ovarian cancer); experiment: In vitro cytotoxicity, SRB assay, A2780Cis
A375 (human melanoma) = experiment: In vitro cytotoxicity, SRB assay, A375; details: 72 h with compound, SRB, n/a = non-active compound, read-out: A375 IC50
Hs294T (human melanoma) = experiment: cells; details: for SI Hs294T: selectivity coefficient vs normal BALB/3T3 fibroblasts
[5] = system: PLC/PRF/5 (human liver cancer); experiment: cells; details: for SI PLC/PRF/5: selectivity coefficient vs normal BALB/3T3 fibroblasts
[6] = system: SNU-16 (human gastric cancer); experiment: cells; details: for SI SNU-16: selectivity coefficient vs normal BALB/3T3 fibroblasts
[7] = system: MIA PaCa-2 (human pancreatic cancer); experiment: cells; details: for SI MIA PaCa-2: selectivity coefficient vs normal BALB/3T3 fibroblasts
[8] = system: BALB/3T3 (normal mouse fibroblasts); experiment: In vitro cytotoxicity, SRB assay, normal BALB/3T3 fibroblasts
[9] = system: MV-4-11 (human biphenotypic leukaemia); experiment: In vitro cytotoxicity, MTT assay, MV-4-11
[10] = system: NCI-H358 (human lung cancer); experiment: cells; details: Table 4; for IC50: NCI-H358 human lung cancer cells, read-out: IC50 (nM) NCI-H358; for SI NCI-H358: selectivity coefficient vs normal BALB/3T3 fibroblasts
[11] = system: KG-1 (human acute myeloid leukaemia); experiment: In vitro cytotoxicity, MTT assay, KG-1; details: Homo sapiens; 72 h with compound, MTT; n/a = non-active compound
[12] = Table 4, PLC/PRF/5 human liver cancer cells, read-out: IC50 (nM) PLC/PRF/5
[13] = Table 4, SNU-16 human gastric cancer cells, read-out: IC50 (nM) SNU-16
[14] = Table 4, MIA PaCa-2 human pancreatic cancer cells, read-out: IC50 (nM) MIA PaCa-2
[15] = Table 4, BALB/3T3 normal mouse fibroblasts, read-out: IC50 (nM) BALB3T3 normal cells
[16] = Homo sapiens, A2780cis, read-out: IC50 (nM) A2780Cis
[17] = Hs 294T, Table 4, Hs294T human melanoma cells, read-out: IC50 (nM) Hs294T
[18] = Homo sapiens, MV4-11, read-out: IC50 (nM) MV4-11

Row | SMILES | anti-proliferative effect compared to that of the parent compound (cancer cells) | IC50 [5, 12] | IC50 [6, 13] | IC50 [7, 14] | IC50 [8, 15] | IC50 [10] | SI A2780Cis [4] | IC50 [4, 16] | IC50 (Hs294T (human melanoma); [17]) | SI Hs294T (Hs294T (human melanoma); Table 4) | SI PLC/PRF/5 ([5]; Table 4) | SI SNU-16 ([6]; Table 4) | SI MIA PaCa-2 ([7]; Table 4) | SI MV4-11 [9] | IC50 [9, 18] | SI NCI-H358 [10] | other results
1 | CC[C@@H](C(=O)[C@@H](C)[C@@H](O)[C@H](C)[C@@H]1O[C@@H]([C@@H](CC)C(=O)O)CC[C@@H]1C)[C@H]1O[C@]2(C=C[C@@H](NC(=O)C3CCCCC3)[C@]3(CC[C@@](C)([C@H]4CC[C@](O)(CC)[C@H](C)O4)O3)O2)[C@H](C)C[C@@H]1C [FLC-00464-1•Na] | several times more potent compared to that of the parent compound |  |  |  |  |  |  |  |  |  |  |  |  |  |  |  | 
2 | N.N.[Cl][Pt][Cl] [Cisplatin, cisplatin, reference compound] |  | 1580 nM | 2330 nM | 2360 nM | 1390 nM | 2550 nM |  |  |  |  |  |  |  |  |  |  | IC50 [1]: 2320 nM; IC50 [2]: 1510 nM; IC50 [3]: 178 nM; A2780Cis RI [4]: 14.6; IC50 ([4]; read-out: A2780Cis IC50): 2610 nM; IC50 ([4]; read-out: IC50 (nM) A2780Cis): 2610 nM and 2870 nM; IC50 (A375 (human melanoma)): 410 nM; IC50 (Hs294T (human melanoma); 72 h with compound, SRB, n/a = non-active compound, read-out: Hs294T IC50): 736 nM; IC50 (Hs294T (human melanoma); Table 4, Hs294T human melanoma cells, read-out: IC50 (nM) Hs294T): 736 nM; IC50 ([5]; 72 h with compound, SRB, n/a = non-active compound, read-out: PLC/PRF/5 IC50): 1580 nM; IC50 ([6]; 72 h with compound, MTT, n/a = non-active compound, read-out: SNU-16 IC50): 2330 nM; IC50 ([7]; 72 h with compound, SRB, n/a = non-active compound, read-out: MIA PaCa-2 IC50): 2360 nM; IC50 ([8]; Table 5, BALB/3T3 normal mouse fibroblasts, read-out: IC50 (nM) BALB3T3 normal cells): 1390 nM; IC50 ([8]; normal cells, 72 h with compound, SRB, n/a = non-active compound, read-out: BALB/3T3 IC50): 1390 nM; IC50 ([9]; read-out: IC50 (nM) MV4-11): 166 nM
3 | CC[C@@H](C(=O)[C@@H](C)[C@@H](O)[C@H](C)[C@@H]1O[C@@H]([C@@H](CC)C(=O)O)CC[C@@H]1C)[C@H]1O[C@]2(C=C[C@@H](NC(=O)c3ccc(OC(F)(F)F)cc3)[C@]3(CC[C@@](C)([C@H]4CC[C@](O)(CC)[C@H](C)O4)O3)O2)[C@H](C)C[C@@H]1C [FLC-00486-1•Na] | several times more potent compared to that of the parent compound |  |  |  |  |  |  |  |  |  |  |  |  |  |  |  | 
4 | CC[C@@H](C(=O)[C@@H](C)[C@@H](O)[C@H](C)[C@@H]1O[C@@H]([C@@H](CC)C(=O)O)CC[C@@H]1C)[C@H]1O[C@]2(C=C[C@@H](NC(=S)SC)[C@]3(CC[C@@](C)([C@H]4CC[C@](O)(CC)[C@H](C)O4)O3)O2)[C@H](C)C[C@@H]1C [FLC-00475-1•Na] | several times more potent compared to that of the parent compound |  |  |  |  |  |  |  |  |  |  |  |  |  |  |  | 
5 | CC[C@@H](C(=O)[C@@H](C)[C@@H](O)[C@H](C)[C@@H]1O[C@@H]([C@@H](CC)C(=O)O)CC[C@@H]1C)[C@H]1O[C@]2(C=C[C@@H](NC(=O)C(=O)NC)[C@]3(CC[C@@](C)([C@H]4CC[C@](O)(CC)[C@H](C)O4)O3)O2)[C@H](C)C[C@@H]1C [FLC-00443-1•Na] |  | 477 nM | 6190 nM | 554 nM | 4110 nM | 2620 nM | 23.3 | 176 nM | 3970 nM | 1.0 | 8.6 | 0.7 | 7.4 | 23.4 | 175 nM | 1.57 | 
6 | CC[C@@H](C(=O)[C@@H](C)[C@@H](O)[C@H](C)[C@@H]1O[C@@H]([C@@H](CC)C(=O)O)CC[C@@H]1C)[C@H]1O[C@]2(C=C[C@@H](NC(=O)Nc3cccc(C(F)(F)F)c3)[C@]3(CC[C@@](C)([C@H]4CC[C@](O)(CC)[C@H](C)O4)O3)O2)[C@H](C)C[C@@H]1C [FLC-00385-1] |  | 0.55 nM | 20.9 nM | 5.93 nM | 21.9 nM | 36.2 nM | ≈219.0 | < 0.1 nM | 162 nM | 0.1 | 39.7 | 1.0 | 3.7 | 125.5 | 0.17 nM | 0.60 | 
7 | CC[C@@H](C(=O)[C@@H](C)[C@@H](O)[C@H](C)[C@@H]1O[C@@H]([C@@H](CC)C(=O)O)CC[C@@H]1C)[C@H]1O[C@]2(C=C[C@@H](NC(=O)OCCF)[C@]3(CC[C@@](C)([C@H]4CC[C@](O)(CC)[C@H](C)O4)O3)O2)[C@H](C)C[C@@H]1C [FLC-00437-1•Na] |  | 42.3 nM | 342 nM | 45.7 nM | 192 nM | 184 nM | 40.8 | 4.7 nM | 264 nM | 0.7 | 4.5 | 0.6 | 4.2 | 37.5 | 5.11 nM | 1.04 | 
8 | CC[C@@H](C(=O)[C@@H](C)[C@@H](O)[C@H](C)[C@@H]1O[C@@H]([C@@H](CC)C(=O)O)CC[C@@H]1C)[C@H]1O[C@]2(C=C[C@@H](NC(=O)OCCOCc3ccccc3)[C@]3(CC[C@@](C)([C@H]4CC[C@](O)(CC)[C@H](C)O4)O3)O2)[C@H](C)C[C@@H]1C [FLC-00451-1•Na] |  | 42 nM | 126 nM | 14.7 nM | 204 nM | 307 nM | 96.0 | 2.13 nM | 542 nM | 0.4 | 4.9 | 1.6 | 13.9 | 127.9 | 1.6 nM | 0.67 | 
9 | CC[C@@H](C(=O)[C@@H](C)[C@@H](O)[C@H](C)[C@@H]1O[C@@H]([C@@H](CC)C(=O)O)CC[C@@H]1C)[C@H]1O[C@]2(C=C[C@@H](NC(=O)OCCOc3ccccc3)[C@]3(CC[C@@](C)([C@H]4CC[C@](O)(CC)[C@H](C)O4)O3)O2)[C@H](C)C[C@@H]1C [FLC-00460-1•Na] |  | 17.6 nM | 130 nM | 13.6 nM | 92.8 nM | 282 nM | 94.4 | 0.98 nM | 309 nM | 0.3 | 5.3 | 0.7 | 6.8 | 50.0 | 1.86 nM | 0.33 | 
10 | CC[C@@H](C(=O)[C@@H](C)[C@@H](O)[C@H](C)[C@@H]1O[C@@H]([C@@H](CC)C(=O)O)CC[C@@H]1C)[C@H]1O[C@]2(C=C[C@@H](NC(=O)c3ccc(F)cc3)[C@]3(CC[C@@](C)([C@H]4CC[C@](O)(CC)[C@H](C)O4)O3)O2)[C@H](C)C[C@@H]1C [FLC-00470-1•Na] | several times more potent compared to that of the parent compound |  |  |  |  |  |  |  |  |  |  |  |  |  |  |  | 
11 | CC[C@@H](C(=O)[C@@H](C)[C@@H](O)[C@H](C)[C@@H]1O[C@@H]([C@@H](CC)C(=O)O)CC[C@@H]1C)[C@H]1O[C@]2(C=C[C@@H](O)[C@]3(CC[C@@](C)([C@H]4CC[C@](O)(CC)[C@H](C)O4)O3)O2)[C@H](C)C[C@@H]1C [FLC-00001 (SAL), Salinomycin] |  | 504 nM | 145 nM | 304 nM |  | 600 nM |  |  | 2160 nM |  |  |  |  |  |  |  | IC50 ([1]; Homo sapiens, NCI-H23): 356 nM; IC50 ([2]; Homo sapiens, PFSK-1): 336 nM; IC50 ([3]; Homo sapiens, A2780): 120 nM; IC50 (A375 (human melanoma); Homo sapiens, A-375): 574 nM; IC50 (Hs294T (human melanoma); Homo sapiens, Hs 294T, 72 h with compound, SRB, n/a = non-active compound, read-out: Hs294T IC50): 2160 nM; IC50 ([5]; Homo sapiens, PLC-PRF-5, 72 h with compound, SRB, n/a = non-active compound, read-out: PLC/PRF/5 IC50): 504 nM; IC50 ([6]; Homo sapiens, SNU-16, 72 h with compound, MTT, n/a = non-active compound, read-out: SNU-16 IC50): 145 nM; IC50 [11]: 429 nM; IC50 ([7]; Homo sapiens, MIA PaCa-2, 72 h with compound, SRB, n/a = non-active compound, read-out: MIA PaCa-2 IC50): 304 nM
